Assay [1] deals with PPRE-driven luciferase activity. Briefly: PPRE-luciferase assay in Ppara-null hippocampal neurons transduced with Ppara constructs. Type of assay: cell-based, mouse. As to the method: Astrocytes plated at 60-70% confluence were transfected with tk-PPREx3-Luc, a PPRE-dependent luciferase reporter construct. After 24 h of transfection, cells were treated with different concentrations of HEX (FIG. 10A), OCT (FIG. 10B) and HMB (FIG. 10C) for 4 h followed by monitoring luciferase activity. Under similar experimental condition, MTT was performed to understand the effect of these ligands on cell viability (FIG. 10D, HEX; FIG. 10E, OCT; FIG. 10F, HMB). Results are mean±SD of three independent experiments. ^ap<0.001 vs. control. Ppara-null astrocytes were transduced with lentivirions containing empty vector (FIG. 10G), FL-Ppara (FIG. 10H), Y314D-Ppara (FIG. 10I), Y464D-Ppara (FIG. 10J), and Y314D/Y464D-Ppara (FIG. 10K) for 48 h followed by transfection with tk-PPREx3-Luc. After 24 h of transfection, cells were treated with different doses of HEX, OCT and HMB for 4 h followed by monitoring luciferase activity. PPRE luciferase activity was assayed in Ppara-null astrocytes transduced with lentivirions containing empty vector (FIG. 10L), FL-Ppara (FIG. 10M), Y314D-Ppara (FIG. 10N), Y464D-Ppara (FIG. 10O), and Y314D/Y464D-Ppara (FIG. 10P) after treatment with different doses of WY14643, fenofibrate, and clofibrate. PPRE luciferase activity was assayed in primary hippocampal neurons transduced with lentivirions containing empty vector (FIG. 10Q), FL-Ppara (FIG. 10R), Y314D-Ppara (FIG. 10S), Y464D-Ppara (FIG. 10T), and Y314D/Y464D-Ppara (FIG. 10U) after treatment with different doses of HEX, OCT and HMB. Results are mean±SD of three independent experiments. ^ap<0.001 vs. control.
(§1) Isolation of Mouse Hippocampal Neurons: Hippocampal neurons were isolated from fetuses (E18) of pregnant female Ppara-null and strain-matched WT littermate mice as described by us^6,13,35-36 with some modifications. Briefly, dissection and isolation procedures were performed in an ice-cold, sucrose buffer solution (sucrose 0.32 M, Tris 0.025 M; pH 7.4)^37. The skin and the skull were carefully removed from the brain by scissors followed by peeling off the meninges by a pair of fine tweezers. Next, a fine incision was made in the middle line around the circle of Willis and medial temporal lobe was opened up. Hippocampus was isolated as a thin slice of tissue located near the cortical edge of medial temporal lobe. Hippocampal tissues isolated from all fetal pups (n>10) were combined together and homogenized with 1 ml of trypsin for 5 minutes at 37° C. followed by neutralization of trypsin. The single cell suspension of hippocampal tissue was plated in the poly-D-lysine pre-coated 75 mm flask. Five min after plating, the supernatants were carefully removed and replaced with complete neurobasal media. The next day, 10 μM AraC was added to remove glial contamination in the neuronal culture. The pure cultures of hippocampal neurons were allowed to differentiate fully for 9-10 days before treatment^35,36,38.

The next assay deals with NR2A, GluR1 and CREB. Briefly: Immunoblot and immunofluorescence of synaptic molecules in Ppara-null hippocampal neurons. The assay is classed as cell-based, mouse. Particulars: 5 μM HEX, 5 μM OCT, 50 μM HMB. As for the experimental part: (FIG. 17A) Immunoblot analyses followed by densitometric analyses of NR2A (FIG. 17B), GluR1 (FIG. 17C) and CREB (FIG. 17D) were performed in Ppara-null and WT hippocampal neurons treated with 5 μM HEX, 5 μM OCT and 50 μM HMB. Data are mean±SD of three different experiments. ^ap<0.05 versus WT-control. Immunocytochemical analyses of NR2A (FIG. 17E) and GluR1 (FIG. 17F) in WT and Ppara-null hippocampal neurons treated with HEX, OCT and HMB. Hippocampal neurons were transduced with lenti-GFP for 48 h followed by treatment with different ligands. Immunoblot analyses followed by relative densitometric analyses of CREB in Ppara-null hippocampal neurons transduced with lentivirions containing different Ppara constructs followed by treatment with HEX (FIG. 17G-H), OCT (FIG. 17I-J) and HMB (FIG. 17K-L). Bands were scanned and presented as relative to control (FIG. 17H, HEX; FIG. 17J, OCT; FIG. 17L, HMB). Data are mean±SD of three different experiments. ^ap<0.05 vs FLPpara control.
as §1
For whole-cell and tissue lysates, samples were homogenized in RIPA buffer containing protease and phosphatase inhibitors (Sigma), passed 10 times through a 26-gauge needle, rotated end over end for 30 min at 4° C., and centrifuged for 10 min at 18,000×g. The supernatant was aliquoted and stored at −80° C. until use. Protein concentrations were determined using a NanoDrop 2000 (Thermo Fisher), and 15-30 μg sample was heat-denatured and resolved on 10% or 12% polyacrylamide-SDS gels, transferred to 0.45 μm nitrocellulose membranes under semidry conditions (15V for 12 min). Membranes were blocked for 1 h with blocking buffer (Li-Cor), incubated with primary antibodies overnight at 4° C. under shaking conditions, washed, incubated with IR-dye-labeled secondary antibodies (1:17,000; Li-Cor) for 45 min at room temperature, washed, and visualized with the Odyssey Infrared Imaging System (Li-Cor). Blots were converted to grayscale and then binary, analyzed using Fiji, and normalized to appropriate loading controls.
A general note: In western blotting, separated proteins are transferred to a membrane and probed.

Molecules are shown by their SMILES.

For `CCCCCCCCC=CCCCCCCCC(N)=O` [OCT, 9-octadecenamide], the PPRE-luciferase activity result in assay [1] (lenti-Y314D/Y464D-Ppara) was “completely abrogated”. Besides, the PPRE-luciferase activity entry in assay [1] (lenti-Y464D-Ppara) is given as “completely abrogated”. Further, in the assay on NR2A, GluR1 and CREB, the “expression of CREB” value is recorded as “not” and the “expression of NR2A” value is given as “not”.
As to `CCCCCCCCCCCCCCCC(N)=O` [HEX, hexadecanamide], the PPRE-luciferase activity result in assay [1] (lenti-Y314D/Y464D-Ppara) is recorded as “completely abrogated”. Moreover, the PPRE-luciferase activity entry in assay [1] (lenti-Y464D-Ppara) was “completely abrogated”. Further, in the assay on NR2A, GluR1 and CREB, the “expression of CREB” value is “not” and the “expression of NR2A” value is “not”.
For `CCOC(=O)C(C)(C)C(C)O` (stereo not drawn) [HMB], the PPRE-luciferase activity result in assay [1] (lenti-Y314D/Y464D-Ppara) and in assay [1] (lenti-Y464D-Ppara) was “completely abrogated” throughout. In addition, in the assay with NR2A, GluR1 and CREB, the “expression of CREB” value was “not”. Besides, in the assay on NR2A, GluR1 and CREB, the “expression of NR2A” value was “not”.

The values are drawn from patent US10617664B2, “Brain derived PPARα ligands” (Rush University Medical Center, priority 2015, dated 2020).
